Paper PMC10950897, “VCF1 is a p97/VCP cofactor promoting recognition of ubiquitylated p97-UFD1-NPL4 substrates” (Nature Communications, 2024)
Entries after “also recorded” stand apart in the source; their conditions may differ.

What was measured:
[1] = test system: p97 with poly-ubiquitylated mEos3.2; assay: In vitro p97 unfoldase assay (mEos3.2); format: biochemical, human; details: p97 100 nM hexamer, UFD1-NPL4 500 nM, VCF1 300 nM, 37 °C
Experimental: Di-ubiquitin-fused mEos3.2 fluorescent protein (diUb-mEos3.2) and ubiquitylation cascade proteins mUbe1, gpc78-ubc7 fusion and ubiquitin were recombinantly expressed in E. coli and purified as described previously. diUb-mEos3.2 substrate was enzymatically polyubiquitylated as described previously. […] The unfolding activity of p97 was monitored in vitro by measuring the decrease in diUb^n-mEos3.2 fluorescence. For this, diUb^n-mEos3.2 (35 nM), p97 (100 nM hexamer), UFD1-NPL4 (500 nM) and VCF1 (300 nM) were mixed as indicated in Eos assay buffer (50 mM HEPES, pH 7.5; 150 mM KCl; 2 mM MgCl2; 5% glycerol; 1 mM DTT) and pre-warmed to 37 °C for 5 min before ATP (2 mM) was added to start the reaction. Unfolding of red mEos3.2 fluorescence was measured every 15 s in a Varian Cary Eclipse spectrofluorometer (excitation: 500 nm; emission: 520 nm) and normalized to the first value after addition of ATP.

[2] = test system: p97-UFD1-NPL4 binding to ubiquitylated proteins; assay: FLAG IP: p97-UFD1-NPL4 binding to ubiquitylated proteins in U2OS cell extracts; format: biochemical, human; details: U2OS total cell extracts, EBC buffer
Experimental: (§1) All in vitro binding experiments were performed in EBC or RIPA buffer as indicated. Recombinant Biotin-tagged K48-linked poly-ubiquitin chains (2−7) and K48-linked poly-ubiquitin chains (2−16) were purchased from R&D Systems and Enzo Life Science, respectively. Recombinant proteins were incubated with Strep-Tactin Sepharose (IBA), Glutathione agarose (Gold Biotechnology) or […] Fab-trap agarose (ChromoTek) overnight on an end-over-end rotator at 4 °C, washed six times with EBC or RIPA buffer, and resuspended in 2×Laemmli sample buffer. For p97, VCF1 or p47 pulldowns, antibodies (0.5 µg/sample) were coupled to agarose beads, incubated with recombinant proteins or cell lysates and washed with the indicated buffer. To assess p97-UFD1-NPL4 binding to ubiquitylated proteins in total cell extracts, U2OS cells were lysed in EBC buffer supplemented with protease and phosphatase inhibitors, sonicated and incubated on ice for 10 min. Lysates were cleared by centrifugation for 10 min at 16,100 × g. Cell lysate (40 µg) was added to recombinant proteins in EBC buffer, incubated overnight on the rotator with […] Fab-trap agarose (ChromoTek), and beads were washed six times.

ubiquitin (K48-Ub2-16) = assay: StrepTactin pulldown of VCF1 with K48-linked ubiquitin chains; ubiquitin interaction alone or in complex with p97; format: binding
Experimental: as §1

[3] = test system: p97 with UFD1-NPL4, p47 or FAF1; assay: In vitro binding with p97 cofactors (GST, StrepTactin, p47, p97 or FLAG pulldown); design: species or system human
Experimental: as §1

[4] = test system: p97 (WT, truncations, Y143A); assay: In vitro binding, StrepTactin pulldown of Strep-HA-VCF1 with purified p97 proteins; design: species or system human
Experimental: as §1

p97 = assay: IP of endogenous VCF1 from U2OS cells; format: binding, human
Experimental: (§2) Immunoblotting was performed as previously described. Immunoprecipitation (IP) of HA-tagged proteins was performed using Anti-HA Affinity matrix (Roche) under denaturing conditions, unless otherwise stated. GFP-trap and […] Fab-trap agarose (Chromotek) were used according to manufacturer’s instructions. Cell lysis was performed using RIPA buffer (140 mM NaCl; 10 mM Tris-HCl, pH 8.0; 0.1% sodium deoxycholate; 1% Triton X-100; 0.1% SDS; 1 mM EDTA; 0.5 mM EGTA) or EBC buffer (50 mM Tris, pH 7.5; 150 mM NaCl; 1 mM EDTA; 0.5% NP-40, 1 mM DTT). IPs were washed in non-denaturing buffer (50 mM Tris-HCl, pH 7.5; 150 mM NaCl; 0.5 mM EDTA). Cell lysis and IP under partially denaturing conditions were performed using denaturing buffer (20 mM Tris-HCl, pH 7.5; 50 mM NaCl; 0.5% sodium deoxycholate; 0.5% NP-40; 0.5% SDS; 1 mM EDTA). All lysis and wash buffers were supplemented with 1 mM fresh PMSF Protease Inhibitor (Thermo), complete EDTA-free protease inhibitor Cocktail Tablets (Roche), 1.25 mM N-ethylmaleimide (Sigma) and 50 µM PR-619 (Calbiochem).

[5] = test system: C1QBP; histone H3 (U2OS/GFP-VCF1 cells); assay: GFP IP immunoblot for C1QBP and Histone H3; format: binding, human; details: U2OS/GFP-VCF1 WT
Experimental: as §2

## VCF1: human FAM104A isoform 1, 186 amino acids (UniProt Q969W3); recombinant Strep-HA-tagged
[1]
  effect on p97-UFD1-NPL4-mediated unfolding of mEos3.2: did not accelerate the already highly efficient p97-UFD1-NPL4-mediated unfolding of poly-ubiquitylated mEos3.2 in vitro
[2]
  effect on p97-UFD1-NPL4 binding to ubiquitylated proteins: prominent ability of VCF1 to enhance p97-UFD1-NPL4 binding to ubiquitylated proteins; also recorded: fully dependent on the ubiquitin-binding ability of the UFD1-NPL4 complex
Ubiquitin (K48-Ub2-16)
  interaction with ubiquitin: neither in isolation nor in complex with p97 did VCF1 display detectable interaction with ubiquitin
[3]; StrepTactin pulldown
  co-purification of UFD1-NPL4 with immobilized VCF1: dependent on the presence of p97 and the p97-binding proficiency of VCF1
[3]; VCF1:p47 ratio approx. 1:3
  VCF1 in p47 IP: little if any VCF1 is detectable in the p47 IP
[3]; VCF1:p47 ratio approx. 2:1
  VCF1 in p47 IP: VCF1 now becomes detectable in p47 IPs
[3]; VCF1:p47 ratio approx. 8:1
  competition with p47 for p97: more efficiently outcompetes p47 binding to p97
[3]; high/increasing concentrations
  displacement of p97-bound cofactors: displaced p47 and UFD1-NPL4 from p97 in vitro
[3]; moderate concentrations of VCF1
  simultaneous binding with UFD1-NPL4, p47 or FAF1 to p97: clearly permissive for the simultaneous binding
[3]; purified Strep-HA-VCF1, no p97
  p97-independent enrichment in UFD1 pulldowns: modest p97-independent enrichment
[3]; purified proteins, no p97
  direct interaction with UFD1-NPL4: did not directly interact with UFD1-NPL4
[4]; full-length and truncated His6-p97 proteins
  p97 domain bound: interacts with the p97 N-domain
[4]; purified His6-p97 WT, RIPA buffer
  in vitro interaction with p97: readily interacted in vitro
p97; U2OS whole cell lysates
  interaction of endogenous VCF1 with p97: validate an interaction between endogenous VCF1 and p97
p97; U2OS, along with p97
  endogenous NPL4 in endogenous VCF1 IP: NPL4 could be detected in endogenous VCF1 IPs along with p97
[5]
  C1QBP in VCF1 IP: unable to detect C1QBP in VCF1 IPs
  interaction with histone H3: weak interaction between VCF1 and histone H3
